Assay results as given in patent US4764433A, “Agent for the protection of materials” (Bayer Aktiengesellschaft, priority 1985, dated 1988).
≈ marks a conversion by molar mass, not a printed value.

Key:
Aspergillus niger = assay: MIC against fungi (agar, beer wort and peptone); assay type: cell-based; conditions: 336 h, 2 weeks at 28° C., 60 to 70% relative humidity, read-out: MIC values when substances according to the invention act on fungi
Description: (§1) Compounds according to the invention are added, in concentrations of 0.1 mg/l to 5,000 mg/l, to an agar prepared from beer wort and peptone.

Chaetomium globosum = assay: MIC against fungi (agar, beer wort and peptone); assay type: cell-based; conditions: 336 h, 2 weeks at 28° C., 60 to 70% relative humidity, read-out: MIC values when substances according to the invention act on fungi
Description: as §1

Penicillium glaucum = assay: MIC against fungi (agar, beer wort and peptone); assay type: cell-based; conditions: 336 h, 2 weeks at 28° C., 60 to 70% relative humidity, read-out: MIC values when substances according to the invention act on fungi
Description: as §1

Phytophthora infestans = assay type: in vivo; conditions: for fungicidal properties for plant protection: phytophthora test [tomatoes], sulphamides compared with N-sulphenylated benzenesulphonamides according to the invention; for % attack at an active compound concentration of 10 ppm: tomato plants, protective
Alternaria tenuis = assay: MIC against fungi (agar, beer wort and peptone); assay type: cell-based; conditions: Alternaria alternata, 336 h, 2 weeks at 28° C., 60 to 70% relative humidity, read-out: MIC values when substances according to the invention act on fungi
Description: as §1

Aureobasidium pullulans = assay: MIC against fungi (agar, beer wort and peptone); assay type: cell-based; conditions: 336 h, 2 weeks at 28° C., 60 to 70% relative humidity, read-out: MIC values when substances according to the invention act on fungi
Description: as §1

Coniophora puteana [1] = assay: MIC against fungi (agar, beer wort and peptone); assay type: cell-based; conditions: 336 h, 2 weeks at 28° C., 60 to 70% relative humidity, read-out: MIC values when substances according to the invention act on fungi
Description: as §1

Lentinus tigrinus = assay: MIC against fungi (agar, beer wort and peptone); assay type: cell-based; conditions: 336 h, 2 weeks at 28° C., 60 to 70% relative humidity, read-out: MIC values when substances according to the invention act on fungi
Description: as §1

Polyporus versicolor [2] = assay: MIC against fungi (agar, beer wort and peptone); assay type: cell-based; conditions: Trametes versicolor, 336 h, 2 weeks at 28° C., 60 to 70% relative humidity, read-out: MIC values when substances according to the invention act on fungi
Description: as §1

Sclerophoma pityophila = assay: MIC against fungi (agar, beer wort and peptone); assay type: cell-based; conditions: Sydowia polyspora, 336 h, 2 weeks at 28° C., 60 to 70% relative humidity, read-out: MIC values when substances according to the invention act on fungi
Description: as §1

Coniophora puteana [3] = assay: Limiting toxic values (toxicity limits) on pinewood; conditions: 6 weeks at 21° to 23° C.; concentrations at which timber still attacked - no longer attacked
Description: (§2) Determination of the limiting toxic values (kg/m^3 of timber) of active compounds according to the invention for Coniophora puteana and Polyporus versicolor on pinewood and beechwood, respectively.
(§3) The limiting toxic values are determined by a method modelled on the method described by H. P. Sutter, Int. Biodeterioration Bulletin, 14 (3), 1978, pages 95 to 99.
(§4) For each test, freshly cut, thin pieces of cross-cut timber (dimensions 40×40 mm, thickness about 2 mm) are impregnated in vacuo with solutions of varying concentrations of active compounds. In each case one concentration of active compound is used to impregnate 15 timber samples simultaneously. 5 of these are in each case used at the same time for a mycological test.
(§5) The amount of active compound absorbed is determined from the retention of solvent (determined by weighing the small piece of timber before and after impregnation), the density of the timber and the concentration of the active compound in the residual impregnating solution.
(§6) Before the mycological test, the test specimens are sterilized with propylene oxide and in each case 1 test specimen is brought into contact in a Petri dish with the fully developed mycellium of the test fungus on malt extract agar. The toxicity limits are determined visually after 6 weeks at 21° to 23° C.
(§7) The toxicity limits ([…] of timber) for substances according to the invention are shown in the table below; the toxicity limits indicate the concentrations at which the timber is still attacked and at which the timber is no longer attacked.

Polyporus versicolor [4] = assay: Limiting toxic values (toxicity limits) on beechwood; conditions: 6 weeks at 21° to 23° C.; concentrations at which timber still attacked - no longer attacked
Description: as §2, §3, §4, §5, §6, §7

slime organisms = assay: Action against slime organisms, MIC in Allen's nutrient solution; assay type: cell-based; conditions: 504 h, approx. 10^6 microbes/ml, 3 weeks at room temperature, read-out: MIC in mg/l when the substances act on slime organisms
Description: Substances according to the invention, dissolved in a little acetone, are used in concentrations of 0.1 to 100 mg/l in a particular case in Allen's nutrient solution (Arch. Mikrobiol., 17, 34 to 53 (1952)), containing, in 4 l of sterile water, 0.2 g of ammonium chloride, 4.0 g of sodium nitrate, 1.0 g of dipotassium hydrogen phosphate, 0.2 g of calcium chloride, 2.05 g of magnesium sulphate, 0.02 g of iron chloride and 1% of caprolactam. Shortly beforehand, the nutrient solution is infested with slime organisms (approx. 10^6 microbes/ml) which have been isolated from circulating spinning water used in the production of polyamide.

[5] = cited from earlier work

SMILES | MIC (Aspergillus niger) | MIC (Chaetomium globosum) | MIC (Penicillium glaucum) | fungicidal properties for plant protection (Phytophthora infestans) | MIC (Alternaria tenuis) | MIC (Aureobasidium pullulans) | MIC (Coniophora puteana [1]) | MIC (Lentinus tigrinus) | MIC (Polyporus versicolor [2]) | MIC (Sclerophoma pityophila) | Toxicity Limits, Coniophora puteana on pinewood (Coniophora puteana [3]) | Toxicity Limits, Polyporus versicolor on beechwood (Polyporus versicolor [4]) | MIC (slime organisms) | % attack at an active compound concentration of 10 ppm (Phytophthora infestans) | solubility in the formulating agents customary for timber preservatives [5]
Cc1ccc(S(=O)(=O)N(C)SC(F)(Cl)Cl)cc1C [Example 17] | 10 µg/mL (≈ 30.1 µM) | 3.5 µg/mL (≈ 10.5 µM) | 10 µg/mL (≈ 30.1 µM) | – | – | – | – | – | – | – | – | – | – | – | –
Cc1ccc(N(SC(F)(Cl)Cl)S(=O)(=O)N(C)C)cc1 [N,N-dimethyl-N'-(4-tolyl)-N'-dichlorofluoromethylthio-sulphamide] | – | – | – | considerably better fungicidal properties for plant protection | – | – | – | – | – | – | – | – | – | – | –
CCN(SC(F)(Cl)Cl)S(=O)(=O)c1ccc(Cl)cc1 [Example 6] | 10 µg/mL (≈ 28.4 µM) | 35 µg/mL (≈ 99.2 µM) | 10 µg/mL (≈ 28.4 µM) | – | 20 µg/mL (≈ 56.7 µM) | 10 µg/mL (≈ 28.4 µM) | 0.75 µg/mL (≈ 2.13 µM) | 0.5 µg/mL (≈ 1.42 µM) | 1 µg/mL (≈ 2.84 µM) | 7.5 µg/mL (≈ 21.3 µM) | – | – | – | – | –
CN(SC(F)(Cl)Cl)S(=O)(=O)c1cc(Cl)ccc1Cl [Example 28] | 20 µg/mL (≈ 53.6 µM) | 35 µg/mL (≈ 93.8 µM) | 15 µg/mL (≈ 40.2 µM) | – | – | – | – | – | – | – | – | – | – | – | –
CN(SC(F)(Cl)Cl)S(=O)(=O)c1ccc([N+](=O)[O-])cc1 [Example 14] | 20 µg/mL (≈ 57.3 µM) | 20 µg/mL (≈ 57.3 µM) | 20 µg/mL (≈ 57.3 µM) | – | 35 µg/mL (≈ 100 µM) | 5 µg/mL (≈ 14.3 µM) | 3.5 µg/mL (≈ 10 µM) | 5 µg/mL (≈ 14.3 µM) | 10 µg/mL (≈ 28.6 µM) | 3.5 µg/mL (≈ 10 µM) | 0.26-0.79 kg/m^3 of timber | 2.2-3.07 kg/m^3 of timber | – | – | –
CCN(SC(F)(Cl)Cl)S(=O)(=O)c1ccccc1 [Example 2] | 10 µg/mL (≈ 31.4 µM) | < 2 µg/mL | 10 µg/mL (≈ 31.4 µM) | – | – | – | – | – | – | – | 0.24-0.74 kg/m^3 of timber | 1.4-2.4 kg/m^3 of timber | ≤ 2 mg/L | – | –
Cc1ccc(N(SC(F)(Cl)Cl)S(=O)(=O)N(C)C)cc1 [drawing 13] | – | – | – | – | – | – | – | – | – | – | – | – | – | 14% | –
CN(SC(F)(Cl)Cl)S(=O)(=O)c1ccc(Cl)c([N+](=O)[O-])c1 [Example 26] | 50 µg/mL (≈ 130 µM) | 20 µg/mL (≈ 52.1 µM) | 20 µg/mL (≈ 52.1 µM) | – | – | – | – | – | – | – | – | – | – | – | –
CN(C)S(=O)(=O)N(SC(F)(Cl)Cl)c1ccccc1 [drawing 12] | – | – | – | – | – | – | – | – | – | – | – | – | – | 19% | –
CN(SC(F)(Cl)Cl)S(=O)(=O)c1cccc([N+](=O)[O-])c1 [Example 27] | 20 µg/mL (≈ 57.3 µM) | 20 µg/mL (≈ 57.3 µM) | 20 µg/mL (≈ 57.3 µM) | – | – | – | – | – | – | – | – | – | – | – | –
CN(SC(F)(Cl)Cl)S(=O)(=O)c1ccc(Cl)c(Cl)c1 [Example 25] | 20 µg/mL (≈ 53.6 µM) | 7.5 µg/mL (≈ 20.1 µM) | 10 µg/mL (≈ 26.8 µM) | – | – | – | – | – | – | – | – | – | – | – | –
Cc1ccc(S(=O)(=O)N(C)SC(F)(Cl)Cl)cc1 [Example 1, N-fluorodichloromethylthio-N-methylamide of 4-toluenesulphonic acid] | 10 µg/mL (≈ 31.4 µM) | 3.5 µg/mL (≈ 11 µM) | 10 µg/mL (≈ 31.4 µM) | – | 20 µg/mL (≈ 62.8 µM) | 5 µg/mL (≈ 15.7 µM) | 0.5 µg/mL (≈ 1.57 µM) | 5 µg/mL (≈ 15.7 µM) | 2 µg/mL (≈ 6.28 µM) | 5 µg/mL (≈ 15.7 µM) | 0.22-0.65 kg/m^3 of timber | 2.2-2.9 kg/m^3 of timber | ≤ 2 mg/L | – | –
COCCCN(SC(F)(Cl)Cl)S(=O)(=O)c1ccc(C)cc1 [Example 22] | 20 µg/mL (≈ 53.1 µM) | 5 µg/mL (≈ 13.3 µM) | 35 µg/mL (≈ 93 µM) | – | – | – | – | – | – | – | – | – | – | – | –
O=C1c2ccccc2C(=O)N1SC(F)(Cl)Cl [A, N-fluorodichloromethylthiophthalimide, reference compound] | 200 µg/mL (≈ 714 µM) | 100 µg/mL (≈ 357 µM) | 35 µg/mL (≈ 125 µM) | – | 10 µg/mL (≈ 35.7 µM) | 50 µg/mL (≈ 179 µM) | 2 µg/mL (≈ 7.14 µM) | 2 µg/mL (≈ 7.14 µM) | 50 µg/mL (≈ 179 µM) | 10 µg/mL (≈ 35.7 µM) | – | – | – | – | –
CCN(SC(F)(Cl)Cl)S(=O)(=O)c1ccc(C)cc1 [Example 4] | 10 µg/mL (≈ 30.1 µM) | 7.5 µg/mL (≈ 22.6 µM) | 20 µg/mL (≈ 60.2 µM) | – | 10 µg/mL (≈ 30.1 µM) | 3.5 µg/mL (≈ 10.5 µM) | 0.3 µg/mL (≈ 0.903 µM) | 0.5 µg/mL (≈ 1.5 µM) | 0.5 µg/mL (≈ 1.5 µM) | 3.5 µg/mL (≈ 10.5 µM) | 0.65-1.3 kg/m^3 of timber | 2.8-3.7 kg/m^3 of timber | – | – | –
CCCCN(SC(F)(Cl)Cl)S(=O)(=O)c1ccccc1 [Example 3] | – | – | – | – | – | – | – | – | – | – | 0.25-0.76 kg/m^3 of timber | 0.63-1.29 kg/m^3 of timber | – | – | –
Cc1ccc(C)c(S(=O)(=O)N(C)SC(F)(Cl)Cl)c1 [Example 19] | 10 µg/mL (≈ 30.1 µM) | < 2 µg/mL | 20 µg/mL (≈ 60.2 µM) | – | 100 µg/mL (≈ 301 µM) | 35 µg/mL (≈ 105 µM) | 7.5 µg/mL (≈ 22.6 µM) | 100 µg/mL (≈ 301 µM) | 100 µg/mL (≈ 301 µM) | 10 µg/mL (≈ 30.1 µM) | 0.24-0.72 kg/m^3 of timber | 1.07-1.76 kg/m^3 of timber | – | – | –
CN(SC(F)(Cl)Cl)S(=O)(=O)c1ccccc1 [Example 24] | 5 µg/mL (≈ 16.4 µM) | 3.5 µg/mL (≈ 11.5 µM) | 5 µg/mL (≈ 16.4 µM) | – | – | – | – | – | – | – | – | – | – | – | –
CN(C)S(=O)(=O)N(SC(F)(Cl)Cl)c1ccccc1 [B, N,N-dimethyl-N'-phenyl-N'-(fluorodichloromethylthio)-sulphamide, reference compound] | 50 µg/mL (≈ 150 µM) | 50 µg/mL (≈ 150 µM) | 50 µg/mL (≈ 150 µM) | considerably better fungicidal properties for plant protection | 10 µg/mL (≈ 30 µM) | 7.5 µg/mL (≈ 22.5 µM) | 7.5 µg/mL (≈ 22.5 µM) | 10 µg/mL (≈ 30 µM) | 20 µg/mL (≈ 60 µM) | 15 µg/mL (≈ 45 µM) | 1.61-2.25 kg/m^3 of timber | 2.23-2.81 kg/m^3 of timber | – | – | very sparingly soluble
Cc1ccc(S(=O)(=O)N(C)SC(F)(Cl)Cl)cc1[N+](=O)[O-] [Example 8] | 20 µg/mL (≈ 55.1 µM) | 15 µg/mL (≈ 41.3 µM) | 20 µg/mL (≈ 55.1 µM) | – | 5 µg/mL (≈ 13.8 µM) | 5 µg/mL (≈ 13.8 µM) | 0.75 µg/mL (≈ 2.06 µM) | 5 µg/mL (≈ 13.8 µM) | 7.5 µg/mL (≈ 20.6 µM) | 5 µg/mL (≈ 13.8 µM) | – | – | – | – | –
